The test system of data set [1] is K562. In words: Antiproliferative activity against human K562 cells after 72 hrs by CCK8 assay. The format is functional, cell-based. To be noted: K562, 72 h. A general note: Formazan colour is commonly taken as a measure of viable cells.
Data set [2] has as its system K562/Adr. In words: Antiproliferative activity against human K562/ADR cells after 72 hrs by CCK8 assay. Format: functional, cell-based.
The test system of data set [3] is K562. The experiment in a line: Resistance factor, ratio of IC50 for human K562/ADR cells to IC50 for human K562 cells. The format is functional.
Data set [4] concerns the target T1, Mitogen-activated protein kinase; ERK1/ERK2 (Homo sapiens) (UniProt P27361+P28482). The experiment in a line: Activation of ERK1/2 signalling in human K562/ADR cells assessed as increase in cleaved caspase-3 expression at 0.05 uM after 48 hrs by Western blot analysis relative to control. The format is cell-based.
Data set [5] deals with T1, Mitogen-activated protein kinase; ERK1/ERK2 (Homo sapiens). In words: Activation of ERK1/2 signalling in human K562/ADR cells assessed as suppression of P-gp expression at 0.05 uM after 48 hrs by Western blot analysis relative to control. The format is cell-based.
The target is the same in data set [6]. In words: Activation of ERK1/2 signalling in human K562/ADR cells assessed as suppression of CDK1 protein expression at 0.05 uM after 48 hrs by Western blot analysis relative to control. Format: cell-based. On the technique in general: In western blotting, separated proteins are transferred to a membrane and probed.
Data set [7] concerns K562/Adr. The experiment in a line: Effect on total ERK1/2 protein expression level in human K562/ADR cells at 0.05 uM after 48 hrs by Western blot analysis relative to control. Format: ADME, cell-based.
Data set [8] deals with T1, Mitogen-activated protein kinase; ERK1/ERK2 (Homo sapiens). In words: Activation of ERK1/2 signalling in human K562/ADR cells assessed as increase in cleaved caspase-8 expression at 0.05 uM after 48 hrs by Western blot analysis relative to control. Format: cell-based.
The test system of data set [9] is K562/Adr. In words: Induction of apoptosis in human K562/ADR cells assessed as late apoptotic cells at 0.05 uM after 48 hrs by Annexin V-APC/7-AAD staining based flow cytometry (reference value: 3.89%). Format: functional. A general note: A flow cytometer gives signals particle by particle.
Data set [10] deals with T1, Mitogen-activated protein kinase; ERK1/ERK2 (Homo sapiens). The experiment in a line: Activation of ERK1/2 signalling in human K562/ADR cells assessed as increase in cleaved caspase-9 expression at 0.05 uM after 48 hrs by Western blot analysis relative to control. The format is cell-based.
For data set [11] the target is unchanged. In words: Activation of ERK1/2 signalling in human K562/ADR cells assessed as suppression of CyclinB1 protein expression at 0.05 uM after 48 hrs by Western blot analysis relative to control. Format: cell-based.
The test system of data set [12] is K562/Adr. In words: Induction of apoptosis in human K562/ADR cells assessed as chromatin condensation at 0.05 uM after 48 hrs by Hoechst 33342 staining based fluorescent microscopic analysis. The format is functional, cell-based.
Data set [13] concerns the target T1, Mitogen-activated protein kinase; ERK1/ERK2 (Homo sapiens). The experiment in a line: Induction of ERK1/2 phosphorylation in human K562/ADR cells at 0.05 uM after 48 hrs by Western blot analysis relative to control. The format is cell-based.
Data set [14] deals with K562/Adr. In words: Cell cycle arrest in human K562/ADR cells assessed as accumulation in S phase at 0.05 uM after 48 hrs by propidium iodide staining based flow cytometry. The format is functional.
Data set [15] relates to K562/Adr. The experiment in a line: Induction of apoptosis in human K562/ADR cells assessed as nuclear fragmentation at 0.05 uM after 48 hrs by Hoechst 33342 staining based fluorescent microscopic analysis. Format: functional, cell-based.
Data set [16] has as its system K562/Adr. In words: Induction of apoptosis in human K562/ADR cells assessed as live cells at 0.05 uM after 48 hrs by Annexin V-APC/7-AAD staining based flow cytometry (reference value: 91.65%). Format: functional.
For data set [17], the system named is K562/Adr. The experiment in a line: Induction of apoptosis in human K562/ADR cells assessed as necrotic cells at 0.05 uM after 48 hrs by Annexin V-APC/7-AAD staining based flow cytometry (reference value: 2.47%). The format is functional.
Data set [18] deals with K562/Adr. The experiment in a line: Induction of apoptosis in human K562/ADR cells assessed as early apoptotic cells at 0.05 uM after 48 hrs by Annexin V-APC/7-AAD staining based flow cytometry (reference value: 1.99%). The format is functional.

SMILES strings stand for the structures. Counter-ions that a name gives are not always drawn. Activity calls are given as the source filed them. The rule behind the calls is not given here.

T1 sequence (P27361 whole entry, looked up): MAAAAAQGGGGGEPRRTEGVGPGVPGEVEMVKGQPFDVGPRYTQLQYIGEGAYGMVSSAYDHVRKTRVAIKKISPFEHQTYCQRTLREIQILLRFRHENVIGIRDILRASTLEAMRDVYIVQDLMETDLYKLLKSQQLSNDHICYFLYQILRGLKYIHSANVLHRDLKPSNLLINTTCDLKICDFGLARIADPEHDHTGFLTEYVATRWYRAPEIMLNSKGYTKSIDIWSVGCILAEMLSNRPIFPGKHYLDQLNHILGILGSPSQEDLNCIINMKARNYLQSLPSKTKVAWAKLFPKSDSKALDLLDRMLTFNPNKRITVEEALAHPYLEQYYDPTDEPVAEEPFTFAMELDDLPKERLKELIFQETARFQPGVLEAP
T1 sequence (P28482 whole entry, looked up): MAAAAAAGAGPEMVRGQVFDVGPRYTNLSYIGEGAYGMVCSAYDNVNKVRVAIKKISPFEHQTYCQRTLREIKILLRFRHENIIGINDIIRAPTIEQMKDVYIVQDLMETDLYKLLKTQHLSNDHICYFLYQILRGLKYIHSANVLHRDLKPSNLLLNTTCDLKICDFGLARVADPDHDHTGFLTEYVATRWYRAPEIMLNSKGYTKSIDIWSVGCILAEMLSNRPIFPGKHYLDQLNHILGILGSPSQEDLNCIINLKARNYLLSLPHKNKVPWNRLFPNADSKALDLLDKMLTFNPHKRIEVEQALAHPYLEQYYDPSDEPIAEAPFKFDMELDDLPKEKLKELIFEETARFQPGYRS

As to `COc1cc([C@@H]2c3cc4c(cc3[C@H](OC(=O)c3cccnc3)[C@H]3COC(=O)[C@H]23)OCO4)cc(OC)c1OC` [4-O-PODOPHYLLOTOXINYL-NICOTINATE], the IC50 in the data set on K562 [1] stood at 33 nM; with K562/Adr [2] it was 137 nM. Further, the “Ratio IC50” value in the data set with K562 [3] amounted to 4.151.

As to `COc1ccc(C(=O)O[C@H]2c3cc4c(cc3[C@@H](c3cc(OC)c(OC)c(OC)c3)[C@H]3C(=O)OC[C@@H]32)OCO4)cn1`, the results for the IC50 in the data set on K562 [1] and with K562/Adr [2] were 58 nM and 123 nM, respectively. Moreover, in the data set on K562 [3], the “Ratio IC50” value was determined as 2.12.

For the compound `COc1cc([C@@H]2c3cc4c(cc3[C@H](OC(=O)c3cc(Cl)ccn3)[C@H]3COC(=O)[C@H]23)OCO4)cc(OC)c1OC`, the IC50 in the data set on K562 [1] was 16 nM; in the data set with K562/Adr [2] it was 52 nM. Further, in the data set on K562 [3], the “Ratio IC50” value is listed as 3.25.

As to `COc1cc([C@@H]2c3cc4c(cc3[C@H](OC(=O)c3ccc(Br)cn3)[C@H]3COC(=O)[C@H]23)OCO4)cc(OC)c1OC`, the IC50 in the data set on K562 [1] turned out to be 19 nM; in the data set on K562/Adr [2] it was 160 nM. Further, the “Ratio IC50” value in the data set with K562 [3] was 8.421.

In the case of `COc1cc([C@@H]2c3cc4c(cc3[C@H](OC(=O)c3ccncc3)[C@H]3COC(=O)[C@H]23)OCO4)cc(OC)c1OC` [4-O-PODOPHYLLOTOXINYL-ISONICOTINATE], the values for the IC50 with K562 [1] and in the data set with K562/Adr [2] were 11 nM and 48 nM, respectively. Further, the “Ratio IC50” value in the data set with K562 [3] stood at 4.363.

For the compound `COc1cc([C@@H]2c3cc4c(cc3[C@H](O)[C@H]3COC(=O)[C@H]23)OCO4)cc(OC)c1OC` [PODOFILOX], the fold change (FC) in data set [4] came out at 0.76; in data set [5], 0.03; in data set [6] it was 0.4; with K562/Adr [7], 0.88; in data set [8], 0.7; in [10], 0.74. The fold change (FC) in [11] was 0.02; in data set [13] it was 0.63. In addition, the IC50 with K562/Adr [2] was 25 nM. Further, the Activity in the data set on K562/Adr [9] worked out at 43.5%; in the data set with K562/Adr [16], 40.83%; with K562/Adr [17], 7.73%; in the data set with K562/Adr [18] it was 7.94%. Moreover, the “Ratio IC50” value in the data set with K562 [3] is listed as 4.166. For the same compound, the result in the data set on K562/Adr [12], with K562/Adr [14] and in the data set on K562/Adr [15] was Active.

`COc1cc([C@@H]2c3cc4c(cc3[C@H](OC(=O)c3ccnc(Br)c3)[C@H]3COC(=O)[C@H]23)OCO4)cc(OC)c1OC`: the figures for the IC50 with K562 [1] and in the data set on K562/Adr [2] were 23 nM and 58 nM, respectively. Also, the “Ratio IC50” value in the data set on K562 [3] is 2.521.

In the case of `COc1cc([C@@H]2c3cc4c(cc3[C@H](OC(=O)c3ccc(Br)nc3)[C@H]3COC(=O)[C@H]23)OCO4)cc(OC)c1OC`, the IC50 stood at 256 nM with K562 [1] and 345 nM in the data set with K562/Adr [2]. For the same compound, the “Ratio IC50” value in the data set on K562 [3] is 1.347.

Regarding `COc1cc([C@@H]2c3cc4c(cc3[C@H](OC(=O)c3ccnc(Cl)c3)[C@H]3COC(=O)[C@H]23)OCO4)cc(OC)c1OC`, the IC50 amounted to 20 nM in the data set on K562 [1] and 57 nM in the data set on K562/Adr [2]. Further, the “Ratio IC50” value in the data set with K562 [3] was found to be 2.85.

As for `COc1cccc2c1C(=O)c1c(O)c3c(c(O)c1C2=O)C[C@@](O)(C(=O)CO)C[C@@H]3O[C@H]1C[C@H](N)[C@H](O)[C@H](C)O1` [DOXORUBICIN HYDROCHLORIDE], the IC50 in the data set with K562 [1] turned out to be 220 nM; in the data set on K562/Adr [2], 18800 nM.

For `COc1cc([C@@H]2c3cc4c(cc3[C@H](OC(=O)c3cccnc3OC)[C@H]3COC(=O)[C@H]23)OCO4)cc(OC)c1OC`, the IC50 with K562 [1] was determined as 47 nM; with K562/Adr [2] it was 145 nM. The “Ratio IC50” value in the data set with K562 [3] came out at 3.085.

What is called IC50 is the midpoint of a concentration-inhibition curve. The low end stands for inhibition by little substance, the high end for a need for much substance.

(Values after ChEMBL document CHEMBL4477261, “Design, synthesis and evaluation of the multidrug resistance-reversing activity of pyridine acid esters of podophyllotoxin in human leukemia cells” (Bioorg Med Chem Lett, 2016).)
